In the test the target is T1, PAF receptor (Homo sapiens, UniProt P25105).
T1 construct: tissue Lifesource, Inc. (Glenview, Ill.); host or cells: human packed platelets (washed, freeze-thawed membrane preparation)
The test is described as follows: Inhibition of the Specific Binding of [^3 H]PAF to Human Platelet Membrane Preparation. The conditions noted are these: 0.75 nM [^3 H]PAF, 30 minutes at 24° C., pH 7.4. How it is done:
Inhibition of the Specific Binding of [^3 H]PAF to Human Platelet Membrane Preparation.
Human packed platelets were obtained from Lifesource, Inc. (Glenview, Ill.) and washed 3 times with 10 mM Trizma pH 7.0, 2 mM EDTA (dipotassium salt), 150 mM KCl and then once with 10 mM Trizma 7.4, 20 mM CaCl2. The platelets were broken by freezing in a dry ice-ethanol bath, followed by thawing in 24° C. water baths. The preparation was centrifugation (40,000×g, 20 minutes, 4' C) and the pellet resuspended in 10 mM Trizma 7.4, 20 mM CaCl2, 5 mg/ml human albumin. Protein concentration in the platelet membrane preparation was determined by the Lowry method [O.H. Lowry et al. J. Biological Chemistry, 193, 265-275 (1951)]. Aliquots of the membrane preparation were stored at -70° C. Each preparation was characterized for PAF receptor number and dissociation constant (Kd). In binding assays 5 μl of test compound, solubilized in DMSO, was added to polypropylene tubes along with 0.75 nM [^ 3 H]PAF and 200 mcl [0.075 nM] of membranes and 95 μl 10 mM Trizma 7.4, […], 5 mg/ml human albumin. Tubes were incubated for 30 minutes at 24° C. […] Filters were prepared and counted for a scintillation counter. […] The IC50 values were determined by the Allfit program using percent displacement data. […]

This note sets out measurements from patent US5208242A, “5-substituted-4-phenyl-5H-imidazo[4,5-c]pyridine derivatives” (G. D. Searle & Co., priority 1992, dated 1993).

T1 sequence (P25105 whole entry): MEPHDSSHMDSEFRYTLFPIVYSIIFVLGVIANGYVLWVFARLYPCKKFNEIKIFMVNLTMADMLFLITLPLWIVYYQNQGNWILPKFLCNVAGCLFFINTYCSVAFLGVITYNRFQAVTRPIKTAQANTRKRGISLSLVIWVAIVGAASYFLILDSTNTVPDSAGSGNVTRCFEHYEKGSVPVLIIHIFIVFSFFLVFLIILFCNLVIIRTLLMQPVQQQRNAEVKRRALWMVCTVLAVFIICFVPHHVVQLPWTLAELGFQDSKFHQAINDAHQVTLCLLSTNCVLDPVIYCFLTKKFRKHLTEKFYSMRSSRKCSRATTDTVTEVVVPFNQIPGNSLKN

Regarding `COc1cc(C(=O)N(C(C)C)C2CCCCC2)ccc1Cn1ccc2ncnc-2c1-c1ccccc1` [Compound 9, N-cyclohexyl-3-methoxy-N-(1-methylethyl)-4-[(4-phenyl-5H-imidazo[4,5-c]pyridin-5-yl)methyl]benzamide], the IC50 stood at 1.04 µM. This counts as single-digit micromolar.
